Where two headings read alike, the source gives them in different places.
Legend:
GFP-cIAP1 = biological target: T1, GFP-cIAP1 (Homo sapiens, UniProt Q13490); assay: GFP-cIAP1 degradation assay (loss of GFP signal, flow cytometry); format: cell-based
T1 construct: expressed in transfected cells

GFP-cIAP2 [1] = biological target: T2, GFP-cIAP2 (Homo sapiens, UniProt Q13489); assay: GFP-cIAP2 degradation assay (loss of GFP signal, flow cytometry); format: cell-based; conditions: read-out: ΔGFP-cIAP2 EC50, 2 h; 2 h; A375 cells
T2 construct: expressed in transfected cells
T2 sequence (Q13489 whole entry): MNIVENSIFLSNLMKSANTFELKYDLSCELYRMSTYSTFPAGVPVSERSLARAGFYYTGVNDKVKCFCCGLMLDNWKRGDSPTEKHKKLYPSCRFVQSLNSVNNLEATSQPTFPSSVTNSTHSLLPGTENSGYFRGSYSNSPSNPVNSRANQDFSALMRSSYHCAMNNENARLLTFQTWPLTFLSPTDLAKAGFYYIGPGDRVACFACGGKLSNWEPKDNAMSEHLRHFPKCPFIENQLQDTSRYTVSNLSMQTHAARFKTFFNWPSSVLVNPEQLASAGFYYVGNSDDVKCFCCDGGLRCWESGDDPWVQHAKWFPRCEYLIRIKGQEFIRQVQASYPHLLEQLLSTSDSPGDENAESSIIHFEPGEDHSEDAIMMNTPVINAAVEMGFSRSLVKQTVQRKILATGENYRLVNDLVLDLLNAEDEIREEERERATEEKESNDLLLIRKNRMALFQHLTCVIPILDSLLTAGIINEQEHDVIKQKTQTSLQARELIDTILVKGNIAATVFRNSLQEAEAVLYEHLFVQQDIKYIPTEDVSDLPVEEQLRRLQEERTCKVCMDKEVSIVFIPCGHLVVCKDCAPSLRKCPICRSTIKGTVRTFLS
Source text: In this assay, treatment of GFP-cIAP-expressing melanoma cell line A375 with Smac mimetic, Compound 15, for two hours, results in degradation of cIAP-1 and cIAP-2 with concomitant loss of GFP-signal.

[2] = test system: DAP-mediated NF-κB-luc (NOD1); assay: DAP-stimulated NF-kB luciferase reporter gene assay (NOD1 signaling) in HCT116 cells; format: cell-based, human
Experimental: (§1) To assay effects on XIAP E3 ubiquitin ligase activity manifested as NF-kB activation, we established both DAP- and MDP-stimulated luciferase reporter gene assays in which Smac mimetics are evaluated in cells at a single 10 μM drug concentration. Specifically, we developed stable cell lines with HCT116 cells (human colon cancer) that carry the NF-kB-luciferase reporter gene under the regulation of NF-kB promoter activation elements. The assay was carried out as follows: • 1. HCT116 (3-3) cells were cultured in white wall 96-wells plate (50,000 cells/50 μL/well) for overnight at 37° C. • 2. […] The luciferase activity in each well was measured by using Steady-Glo® Luciferase Assay System (Promega Corp.). 48 μL of luminescence detection reagent was added in each well, followed by brief agitation. The plate was left in dark for 15 minutes and then the luminescence activity was measured by using microplate reader Victor2 (PerkinElmer Life and Analytical Science, Shelton, Conn.). • 4. Calculation:
(§2) Luciferase activity in no ligand (i.e., […]) treatment wells=background (BG)
(§3) Luciferase activity in ligand only treatment wells=positive control (PC)
(§4) Luciferase activity in Smac mimetic (SM)+ligand treatment wells=Test • i) Test<PC
(§5) Inhibitory activity by SM(%)=100×[(PC−Test)/(PC−BG)] • ii) Test>PC
(§6) Activation by SM(%)=100×[(Test−BG)/(PC−BG)]

[3] = test system: MDP-mediated NF-κB-luc (NOD2); assay: MDP-stimulated NF-kB luciferase reporter gene assay (NOD2 signaling) in HCT116 cells; format: cell-based, human
Experimental: as §1, §2, §3, §4, §5, §6

WT murine BMDMs = assay: IL-1β secretion from LPS-primed WT bone marrow-derived macrophages; format: cell-based; conditions: 24 h
Source text: Given the heightened activity of 2 versus 1 on cIAP2, we speculated that the improved tolerability of 1 might also be associated with reduced antagonism of XIAP functional activity in this system. We thus evaluated a selection of Smac-mimetics in both LPS-primed wild-type (WT) and XIAP knockout (Xiap^−/−) murine BMDMs to assess their capacity to induce the secretion of IL-1β following treatment with Smac-mimetic (FIG. 4).
WT and Xiap^−/− BMDMs were primed with LPS±the indicated concentration of Smac-mimetics for 24 h. WT BMDM results are presented as the mean±SEM (n=3 biological independent repeats). […] Total levels of IL-1β induced by Smac-mimetics in these assays varied but the trend was identical.

Xiap−/− murine BMDMs = assay: IL-1β secretion from LPS-primed XIAP knockout bone marrow-derived macrophages; format: cell-based; conditions: 24 h
Experimental: We thus evaluated a selection of Smac-mimetics in both LPS-primed wild-type (WT) and XIAP knockout (Xiap^−/−) murine BMDMs to assess their capacity to induce the secretion of IL-1β following treatment with Smac-mimetic (FIG. 4).
WT and Xiap^−/− BMDMs were primed with LPS±the indicated concentration of Smac-mimetics for 24 h. WT BMDM results are presented as the mean±SEM (n=3 biological independent repeats).

Tolerability = conditions: in vivo
Source text: . Binding of IAP antagonists to cIAP1 proteins induces a conformational rearrangement that exposes the RING domain. Once exposed, the RING domain dimerizes and E3 ubiquitin ligase activity is activated. Using a range of assays that evaluated cIAP1 stability; NF-κB activation; cIAP1 oligomeric state; […]. Birinapant-induced loss of cIAPs correlated with inhibition of TNF-mediated NF-κB activation, caspase activation, tumor cell killing, and tumor regression. Birinapant was well-tolerated. […]. […]; (ii.) decreased affinity for XIAP BIR3; (iii.) decreased ability to inhibit XIAP-dependent NOD signaling, despite its activity in an XIAP-dependent caspase-3 activation assay; and, (iv.) decreased pro-inflammatory IL-1β secretion. […]

GFP-cIAP2 [4] = biological target: T2, GFP-cIAP2; assay: GFP-cIAP2 degradation assay (loss of GFP signal, flow cytometry); format: cell-based; conditions: read-out: ΔGFP-cIAP2 EC50, 24 h
XIAP BIR3 = XIAP BIR3 (Homo sapiens, UniProt P98170); assay: Fluorescence polarization displacement assay, XIAP BIR3
XIAP BIR3, sequence (P98170 241-356 limits assumed): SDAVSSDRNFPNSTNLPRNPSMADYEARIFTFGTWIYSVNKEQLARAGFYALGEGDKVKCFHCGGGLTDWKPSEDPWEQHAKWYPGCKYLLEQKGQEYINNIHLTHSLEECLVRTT
Source text: (§7) To establish protein-ligand binding affinity, we employed a fluorescence polarization assay. This assay monitored the displacement of an IAP binding motif (IBM)-containing peptide, Abu-RPFK(5-carboxyfluorescein)-NH2, from the Type III BIR domains of cIAP1, cIAP2, XIAP, and ML-IAP.

cIAP1 BIR3 = cIAP1 BIR3 (Homo sapiens, UniProt Q13490); assay: Fluorescence polarization displacement assay, cIAP1 BIR3
cIAP1 BIR3, sequence (Q13490 253-363 limits assumed): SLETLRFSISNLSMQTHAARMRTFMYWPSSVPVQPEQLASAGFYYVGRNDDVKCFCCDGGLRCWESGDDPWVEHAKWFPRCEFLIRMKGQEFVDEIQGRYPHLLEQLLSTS
Source text: as §7

cIAP2 BIR3 = cIAP2 BIR3 (Homo sapiens, UniProt Q13489); assay: Fluorescence polarization displacement assay, cIAP2 BIR3
cIAP2 BIR3, sequence (Q13489 238-349 limits assumed): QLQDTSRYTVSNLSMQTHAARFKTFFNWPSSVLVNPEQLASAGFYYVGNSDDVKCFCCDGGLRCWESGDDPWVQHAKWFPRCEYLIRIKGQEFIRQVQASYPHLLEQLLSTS
Source text: as §7

ML-IAP BIR = biological target: T3, ML-IAP BIR (Homo sapiens, UniProt Q96CA5); assay: Fluorescence polarization displacement assay, ML-IAP BIR
T3 sequence (Q96CA5 63-179 limits assumed): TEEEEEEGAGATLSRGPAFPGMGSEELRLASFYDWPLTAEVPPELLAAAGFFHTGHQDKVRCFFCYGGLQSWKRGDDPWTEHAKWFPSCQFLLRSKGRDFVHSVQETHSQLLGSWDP
Source text: as §7

cIAP1-BUCR [5] = biological target: T4, cIAP1-BUCR (Homo sapiens, UniProt Q13490); assay: MALLS-SEC analysis of the oligomeric state of cIAP1-BUCR
T4 sequence (Q13490 260-618 limits assumed): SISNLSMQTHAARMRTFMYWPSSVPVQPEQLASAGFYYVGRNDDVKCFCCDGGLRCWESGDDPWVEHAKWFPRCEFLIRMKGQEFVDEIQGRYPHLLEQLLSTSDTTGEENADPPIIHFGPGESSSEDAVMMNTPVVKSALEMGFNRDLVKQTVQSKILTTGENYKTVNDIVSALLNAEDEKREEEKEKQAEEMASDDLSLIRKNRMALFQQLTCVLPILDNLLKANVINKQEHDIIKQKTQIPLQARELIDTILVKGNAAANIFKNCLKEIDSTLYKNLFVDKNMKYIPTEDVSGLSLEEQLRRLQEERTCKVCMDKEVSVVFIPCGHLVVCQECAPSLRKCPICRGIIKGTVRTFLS
Source text: With 2 as a positive control, we used MALLS-SEC analysis to characterize the oligomeric state of cIAP1-BUCR in the presence of 1, the mono-D-Abu epimer (3), and the bis-D-Abu diastereomer (4).

cIAP1-BUCR [6] = biological target: T4, cIAP1-BUCR; assay: cIAP1 auto-ubiquitylation in vitro (Ub transfer by cIAP1-BUCR)
Source text: To assess the E3 ligase activity of IAP antagonist-induced cIAP1-BUCR dimers, we monitored cIAP1 auto-ubiquitylation in vitro.

cIAP1-BUCR dimer = cIAP1-BUCR dimer (Homo sapiens, UniProt Q13490); assay: Co-immunoprecipitation of differentially-tagged cIAP1-BUCR constructs
cIAP1-BUCR dimer, sequence (Q13490 260-618 limits assumed): as above
cIAP1-BUCR dimer, sequence (Q13490 260-618 limits assumed): as above

[7] = 10 μM Smac mimetic, HCT116 cells

T1 sequence (Q13490 whole entry): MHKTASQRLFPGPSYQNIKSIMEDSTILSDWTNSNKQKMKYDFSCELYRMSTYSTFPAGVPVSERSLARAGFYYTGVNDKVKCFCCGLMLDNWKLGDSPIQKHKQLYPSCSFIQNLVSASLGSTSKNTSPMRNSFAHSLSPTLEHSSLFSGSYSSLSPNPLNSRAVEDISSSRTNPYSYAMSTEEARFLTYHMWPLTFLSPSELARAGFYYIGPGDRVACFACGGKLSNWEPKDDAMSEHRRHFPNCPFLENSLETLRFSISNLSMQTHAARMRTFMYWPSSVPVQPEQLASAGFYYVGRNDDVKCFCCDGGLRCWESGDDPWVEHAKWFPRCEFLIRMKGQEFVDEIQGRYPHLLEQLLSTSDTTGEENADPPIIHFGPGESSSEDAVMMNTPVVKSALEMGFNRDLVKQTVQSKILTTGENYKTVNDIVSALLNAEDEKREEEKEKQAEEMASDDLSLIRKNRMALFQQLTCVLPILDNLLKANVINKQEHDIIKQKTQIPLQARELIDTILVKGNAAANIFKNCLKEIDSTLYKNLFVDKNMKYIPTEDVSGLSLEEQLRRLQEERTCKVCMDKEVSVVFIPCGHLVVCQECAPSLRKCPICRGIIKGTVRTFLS

DC50 (GFP-cIAP1; read-out: ΔGFP-cIAP1 EC50, 2 h, 2 h, A375 cells): 13 ± 5 nM
DC50 (GFP-cIAP1; read-out: ΔGFP-cIAP1 EC50, 24 h, 24 h): 4 ± 2 nM
DC50 (GFP-cIAP2 [1]): 43 ± 17 nM
EC50 (TNF-mediated NF-κB-luc): 8 ± 2 nM
DC50 (GFP-cIAP2 [4]): 27 ± 17 nM
Ki (XIAP BIR3): ~1 nM
Ki (cIAP1 BIR3): ~1 nM
Ki (cIAP2 BIR3): ~1 nM
Ki (ML-IAP BIR): ~1 nM
Ub transfer by cIAP1-BUCR (auto-ubiquitylation) (cIAP1-BUCR [6]): increased
co-IP of Flag-tagged cIAP1-BUCR with mbw-tagged cIAP1-BUCR (cIAP1-BUCR dimer): allowed the co-IP
Compound: CN[C@@H](C)C(=O)N[C@H](C(=O)N1CCC[C@H]1Cc1c(-c2ccc(-c3c(C[C@@H]4CCCN4C(=O)[C@@H](NC(=O)[C@H](C)NC)C(C)(C)C)c4ccc(F)cc4n3CCO)cc2)n(CCO)c2cc(F)ccc12)C(C)(C)C [Compound A (2), reference compound]
Inhibition of DAP-mediated NF-κB-luc, % Inhibition [2, 7]: 98 (+/−1) %
Inhibition of DAP-mediated NF-KB-luc @ 2 h, % Inhibition ([2]; @ 2 h): 98 ± 1%
Inhibition of MDP-mediated NF-κB-luc, % Inhibition [3, 7]: 99 (+/−1) %
Inhibition of MDP-mediated NF-KB-luc @ 2 h, % Inhibition ([3]; @ 2 h): 99 ± 1%
IL-1β secretion from LPS-primed WT BMDMs (WT murine BMDMs): capable of inducing IL-1β secretion
IL-1β secretion in Xiap−/− BMDMs (Xiap−/− murine BMDMs): induced IL-1β secretion
tolerability (Tolerability): poorly tolerated
cIAP1-BUCR dimerization (cIAP1-BUCR [5]): formation of the higher molecular weight cIAP1-BUCR dimer

From US20140303090A1, “Smac Mimetic Therapy” (TETRALOGIC PHARMACEUTICALS CORPORATION, priority 2013, published 2014)
